The experiment relates to pseudomonas & other pathogens.

`[Zn]` [zinc]: the “kills pseudomonas & other pathogens” value is on record as “kills pseudomonas & other pathogens”.

Source of the values: patent US20070114186A1 (priority 2003, published 2007).
